Measured values as given in PubChem BioAssay AID1117354 (Cheminformatics & Chemogenomics Research Group (CCRG), …, 2015).
Active and inactive are the calls of the source. The rule behind the calls is not given here.

Biological target: Tyrosine-protein kinase JAK2 (Homo sapiens) (UniProt O60674)
Assay: NCGC Pharmaceutical Collection primary HTS, Janus kinase 2 (Homo sapiens) inhibitors, biochemical, LANCE Ultra TR-FRET (AID 1117354)
Details: LANCE Ultra TR-FRET kinase assay, at 20 µM (top of the series)

Sequence of Tyrosine-protein kinase JAK2 (Homo sapiens) (O60674 whole entry, looked up): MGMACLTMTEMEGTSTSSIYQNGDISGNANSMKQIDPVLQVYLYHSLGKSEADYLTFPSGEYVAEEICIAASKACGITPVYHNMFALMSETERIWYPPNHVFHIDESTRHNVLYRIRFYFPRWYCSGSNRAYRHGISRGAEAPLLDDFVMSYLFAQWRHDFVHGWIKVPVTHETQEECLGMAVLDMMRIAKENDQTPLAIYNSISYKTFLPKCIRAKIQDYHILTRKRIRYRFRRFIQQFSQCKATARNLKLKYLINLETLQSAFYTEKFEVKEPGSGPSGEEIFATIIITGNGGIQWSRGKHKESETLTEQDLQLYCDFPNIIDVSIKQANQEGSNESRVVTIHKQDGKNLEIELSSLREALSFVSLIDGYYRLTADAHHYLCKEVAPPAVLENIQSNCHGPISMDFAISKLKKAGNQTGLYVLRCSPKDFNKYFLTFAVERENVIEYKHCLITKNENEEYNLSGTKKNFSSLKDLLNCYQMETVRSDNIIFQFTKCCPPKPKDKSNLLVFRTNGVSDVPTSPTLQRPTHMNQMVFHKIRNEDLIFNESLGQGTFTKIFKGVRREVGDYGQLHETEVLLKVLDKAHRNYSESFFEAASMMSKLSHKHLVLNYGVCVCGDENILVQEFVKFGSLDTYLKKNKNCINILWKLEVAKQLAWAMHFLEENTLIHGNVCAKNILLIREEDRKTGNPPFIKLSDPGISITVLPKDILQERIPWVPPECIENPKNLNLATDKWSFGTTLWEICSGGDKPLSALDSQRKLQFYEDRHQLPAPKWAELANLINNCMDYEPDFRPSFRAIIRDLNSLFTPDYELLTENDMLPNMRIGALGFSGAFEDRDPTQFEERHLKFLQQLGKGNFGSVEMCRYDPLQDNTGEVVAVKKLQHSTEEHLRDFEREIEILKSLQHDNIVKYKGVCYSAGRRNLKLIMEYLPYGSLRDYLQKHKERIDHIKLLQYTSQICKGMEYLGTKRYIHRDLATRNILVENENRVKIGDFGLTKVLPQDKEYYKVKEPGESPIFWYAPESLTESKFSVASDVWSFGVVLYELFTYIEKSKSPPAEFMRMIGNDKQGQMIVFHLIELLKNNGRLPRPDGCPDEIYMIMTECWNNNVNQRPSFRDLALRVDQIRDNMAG

## O=[N+]([O-])c1ccc(O)c2ncccc12
  inhibition: 1.93% (inactive)

## Cc1nc(Nc2ncc(C(=O)Nc3c(C)cccc3Cl)s2)cc(N2CCN(CCO)CC2)n1
  inhibition: 98.4%

## COc1cc2c(c(OC)c1OC)-c1ccc(OC)c(=O)cc1[C@@H](NC(C)=O)CC2
  inhibition: -10.4% (inactive)

## O=c1[nH]c(=O)n([C@H]2C[C@H](O)[C@@H](CO)O2)cc1C(F)(F)F
  inhibition: 14.7% (inactive)

## Cn1cnc([N+](=O)[O-])c1Sc1ncnc2nc[nH]c12
  inhibition: -15.7% (inactive)

## Cc1cc(O)c2ccccc2c1O
  inhibition: 19.2% (inactive)

## CC(C)C[C@H](NC(=O)[C@H](Cc1ccccc1)NC(=O)c1cnccn1)B(O)O
  inhibition: -3.33% (inactive)

## CNC(=O)c1cc(Oc2ccc(NC(=O)Nc3ccc(Cl)c(C(F)(F)F)c3)cc2)ccn1
  inhibition: 63.2%

## COC(=O)Nc1nc2ccc(C(=O)c3cccs3)cc2[nH]1
  inhibition: 12.9% (inactive)

## Cc1ccc2nc(N)[nH]c(=O)c2c1Sc1ccncc1
  inhibition: 16.7% (inactive)

## CCN(CC)CCOc1ccc(/C(=C(\Cl)c2ccccc2)c2ccccc2)cc1
  inhibition: -4.05% (inactive)

## O=C(O)c1ccc(-n2nc(-c3ccccc3O)nc2-c2ccccc2O)cc1
  inhibition: 44.5% (inactive)

## CC[C@]1(O)C[C@@H]2CN(CCc3c([nH]c4ccccc34)[C@@](C(=O)OC)(c3cc4c(cc3OC)N(C)[C@H]3[C@@](O)(C(=O)OC)[C@H](OC(C)=O)[C@]5(CC)C=CCN6CC[C@]43[C@@H]65)C2)C1
  inhibition: 5.49% (inactive)

## Cc1cc(=O)c2c(O)c3c(O)cc(=O)c4c3c3c(cc(O)c1c23)C(C)(C)C=4O
  inhibition: 32.9% (inactive)

## CCC(C)n1ncn(-c2ccc(N3CCN(c4ccc(OC[C@H]5CO[C@](Cn6cncn6)(c6ccc(Cl)cc6Cl)O5)cc4)CC3)cc2)c1=O (stereo partly drawn)
  inhibition: 10.5% (inactive)

## CN(C)c1ccc2nc3ccc(=[N+](C)C)cc-3sc2c1
  inhibition: 13.3% (inactive)

## CCCCC1C(=O)N(c2ccccc2)N(c2ccc(O)cc2)C1=O (stereo not drawn)
  inhibition: -4.57% (inactive)

## CN1CC[C@H](c2c(O)cc(O)c3c(=O)cc(-c4ccccc4Cl)oc23)[C@H](O)C1
  inhibition: 67.4%

## COc1ccc(-c2nc3ccc(C4=NNC(=O)CC4C)cc3[nH]2)cc1 (stereo not drawn)
  inhibition: -0.61% (inactive)

## CC(C)C[C@H](NC(=O)[C@H](CCc1ccccc1)NC(=O)CN1CCOCC1)C(=O)N[C@@H](Cc1ccccc1)C(=O)N[C@@H](CC(C)C)C(=O)[C@@]1(C)CO1
  inhibition: 5.34% (inactive)

## Nc1ccc2cc3ccc(N)cc3nc2c1
  inhibition: -6.54% (inactive)

## COc1ccc(-c2ccc3cc(C(=O)O)ccc3c2)cc1C12CC3CC(CC(C3)C1)C2
  inhibition: 97.7%

## C=C(C)[C@H]1Cc2c(ccc3c2O[C@@H]2COc4cc(OC)c(OC)cc4[C@@H]2C3=O)O1
  inhibition: 4.93% (inactive)

## O=c1[nH]c(=O)n([C@H]2C[C@H](O)[C@@H](CO)O2)cc1F
  inhibition: -18.6% (inactive)

## CCN(CC)CCNC(=O)c1c(C)[nH]c(/C=C2\C(=O)Nc3ccc(F)cc32)c1C
  inhibition: 97.3%

## Cc1nc2ccc(CN(C)c3ccc(C(=O)N[C@@H](CCC(=O)O)C(=O)O)s3)cc2c(=O)[nH]1
  inhibition: 14.6% (inactive)

## Cc1ccc(Nc2nccc(N(C)c3ccc4c(C)n(C)nc4c3)n2)cc1S(N)(=O)=O
  inhibition: 81.8%

## CCCSc1ccc2nc(NC(=O)OC)[nH]c2c1
  inhibition: -0.03% (inactive)

## CCCN(CCC)C(=O)C(CCC(=O)OCCCN1CCN(CCOC(=O)Cc2c(C)n(C(=O)c3ccc(Cl)cc3)c3ccc(OC)cc23)CC1)NC(=O)c1ccccc1 (stereo not drawn)
  inhibition: 12.5% (inactive)

## CC(C)(C)C1CCC(CC2=C(O)c3ccccc3C(=O)C2=O)CC1 (stereo not drawn)
  inhibition: -11.2% (inactive)

## O=C(NOCC1CC1)c1ccc(F)c(F)c1Nc1ccc(I)cc1Cl
  inhibition: 13.2% (inactive)

## NC(=NCCCCCCN=C(N)/N=C(\N)Nc1ccc(Cl)cc1)/N=C(\N)Nc1ccc(Cl)cc1
  inhibition: 0.31% (inactive)

## CC[C@]1(O)C[C@H]2CN(CCc3c([nH]c4ccccc34)[C@@](C(=O)OC)(c3cc4c(cc3OC)N(C=O)[C@H]3[C@@](O)(C(=O)OC)[C@H](OC(C)=O)[C@]5(CC)C=CCN6CC[C@]43[C@@H]65)C2)C1
  inhibition: 9% (inactive)

## CCN(CC)CCNc1ccc(CO)c2sc3ccccc3c(=O)c12
  inhibition: 33.1% (inactive)

## COC(=O)[C@H]1[C@H]2C[C@@H]3c4[nH]c5cc(OC)ccc5c4CCN3C[C@H]2C[C@@H](OC(=O)/C=C/c2ccc(O)c(OC)c2)[C@@H]1OC
  inhibition: 9.23% (inactive)

## CCCOc1ccc2nc(NC(=O)OC)[nH]c2c1
  inhibition: -4.4% (inactive)

## Nc1nc(=S)c2[nH]cnc2[nH]1
  inhibition: 10.3% (inactive)

## CCCCCCCCCCCCCC[N+](C)(C)C
  inhibition: -1.09% (inactive)

## O=C(Nc1ccc([N+](=O)[O-])cc1Cl)c1cc(Cl)ccc1O
  inhibition: 16.5% (inactive)

## Cc1cc2c(C(C)C)c(O)c(O)c(C=O)c2c(O)c1-c1c(C)cc2c(C(C)C)c(O)c(O)c(C=O)c2c1O
  inhibition: -0.85% (inactive)

## COc1c(C)c2c(c(O)c1C/C=C(\C)CCC(=O)OCCN1CCOCC1)C(=O)OC2
  inhibition: 8.22% (inactive)

## Oc1c(Cl)cc(Cl)c2cccnc12
  inhibition: -13.9% (inactive)

## Cc1nc(N)nc(N)c1-c1ccc(Cl)c(Cl)c1
  inhibition: -2.13% (inactive)

## COc1cc2nc(N3CCN(C(=O)c4ccco4)CC3)nc(N)c2cc1OC
  inhibition: -17.8% (inactive)

## O=C1c2c(O)ccc(O)c2C(=O)c2c(NCCNCCO)ccc(NCCNCCO)c21
  inhibition: 43.4% (inactive)

## CC[C@@H]([C@H](C)O)n1ncn(-c2ccc(N3CCN(c4ccc(OC[C@@H]5CO[C@@](Cn6cncn6)(c6ccc(F)cc6F)C5)cc4)CC3)cc2)c1=O
  inhibition: 10.5% (inactive)

## COCc1c(C(C)C)nc(C(C)C)c(/C=C/[C@@H](O)C[C@@H](O)CC(=O)O)c1-c1ccc(F)cc1
  inhibition: -8.56% (inactive)

## Cc1cc(C2CCCCC2)n(O)c(=O)c1
  inhibition: -9.21% (inactive)

## CCc1nc(N)nc(N)c1-c1ccc(Cl)cc1
  inhibition: -6.66% (inactive)

## C=CC(=O)Nc1cc2c(Nc3ccc(F)c(Cl)c3)ncnc2cc1OCCCN1CCOCC1
  inhibition: 68.2%

## CC[C@@]1(O)C(=O)OCc2c1cc1n(c2=O)Cc2c-1nc1ccccc1c2/C=N/OC(C)(C)C
  inhibition: 12.1% (inactive)

## COC(=O)c1nc(Cl)c(Cl)nc1N
  inhibition: -6.75% (inactive)

## COc1cc(-c2ccc(=O)[nH]n2)ccc1OC(F)F
  inhibition: -10.1% (inactive)

## Cc1cc(C)c(/C=C2\C(=O)Nc3ccccc32)[nH]1
  inhibition: 68.5%

## Cc1ccc([N+](=O)[O-])[c]2c1[O][Hg]2
  inhibition: 36.9% (inactive)

## COc1ccc2cc1Oc1ccc(cc1)C[C@H]1c3c(cc4c(c3Oc3cc5c(cc3OC)CCN(C)[C@@H]5C2)OCO4)CCN1C
  inhibition: 17.9% (inactive)

## [O-][n+]1ccccc1SSc1cccc[n+]1[O-]
  inhibition: -17.3% (inactive)

## CC(=O)[C@]1(O)Cc2c(O)c3c(c(O)c2[C@@H](O[C@H]2C[C@H](N)[C@H](O)[C@H](C)O2)C1)C(=O)c1ccccc1C3=O
  inhibition: 29.1% (inactive)

## CCC1=C[C@@H]2CN(C1)Cc1c([nH]c3ccccc13)[C@@](C(=O)OC)(c1cc3c(cc1OC)N(C)[C@H]1[C@@](O)(C(=O)OC)[C@H](OC(C)=O)[C@]4(CC)C=CCN5CC[C@]31[C@@H]54)C2
  inhibition: 1.76% (inactive)

## COC(=O)Nc1nc2ccc(C(=O)c3ccccc3)cc2[nH]1
  inhibition: 25.8% (inactive)

## Oc1c(Cl)cc(Cl)cc1Sc1cc(Cl)cc(Cl)c1O
  inhibition: -0.83% (inactive)

## CC(=O)Oc1ccc(C2(c3ccc(OC(C)=O)cc3)Oc3ccccc3NC2=O)cc1
  inhibition: 7% (inactive)

## C[n+]1c2cc(N)ccc2cc2ccc(N)cc21 (tested in a mixture with another compound)
  inhibition: 8.06% (inactive)

## O=C(CCl)c1ccc(Cl)cc1Cl
  inhibition: -17.1% (inactive)

## CNC(=O)c1ccccc1Sc1ccc2c(/C=C/c3ccccn3)n[nH]c2c1
  inhibition: 94.5%

## CSc1ccc2c(c1)C(N1CCN(C)CC1)Cc1ccccc1S2 (stereo not drawn)
  inhibition: -4.22% (inactive)

## COC(=O)Nc1nc2ccc(C(=O)C3CC3)cc2[nH]1
  inhibition: 21.4% (inactive)

## Oc1c(I)cc(I)c2cccnc12
  inhibition: -10.5% (inactive)

## COc1cc([C@@H]2c3cc4c(cc3[C@H](O)[C@H]3COC(=O)[C@H]23)OCO4)cc(OC)c1OC
  inhibition: 7.37% (inactive)

## S=c1nc[nH]c2nc[nH]c12
  inhibition: 1.43% (inactive)

## Cc1ccccc1C(=O)Nc1ccc(C(=O)N2CCCC(N(C)C)c3ccccc32)cc1 (stereo not drawn)
  inhibition: 16% (inactive)

## CCCCCCCCCCCCCCCC[n+]1ccccc1
  inhibition: 53.6%

## COc1cccc2c1C(=O)c1c(O)c3c(c(O)c1C2=O)C[C@@](O)(C(C)=O)C[C@@H]3O[C@H]1C[C@H](N)[C@H](O)[C@H](C)O1
  inhibition: 7.94% (inactive)

## CCCCc1oc2ccccc2c1C(=O)c1cc(I)c(OCCN(CC)CC)c(I)c1
  inhibition: 16.2% (inactive)

## CC(C)(C)C(=O)OCOP(=O)(COCCn1cnc2c(N)ncnc21)OCOC(=O)C(C)(C)C
  inhibition: -9.81% (inactive)

## O=c1c(-c2ccccc2)c1-c1ccccc1
  inhibition: -9.18% (inactive)

## C[C@@]12C(=O)OC(=O)[C@]1(C)C1CCC2O1
  inhibition: -0.89% (inactive)

## COC(=O)Nc1nc2ccc(S(=O)c3ccccc3)cc2[nH]1 (stereo not drawn)
  inhibition: -7.42% (inactive)

## COc1cc(NCc2ccc3nc(N)nc(N)c3c2C)cc(OC)c1OC
  inhibition: 26.2% (inactive)

## CCCCCCNC(=O)n1cc(F)c(=O)[nH]c1=O
  inhibition: -3.52% (inactive)

## COC(=O)Nc1nc2ccc(Sc3ccccc3)cc2[nH]1
  inhibition: -7.45% (inactive)

## O=C(CCCCCCC(=O)Nc1ccccc1)NO
  inhibition: -17.1% (inactive)

## CCCCCCCCCCCCCCCCCCNC(=O)OC1CCN(C(=O)OC[C@H](COC(=O)N(Cc2cccc[n+]2CC)C(=O)c2ccccc2OC)OC)CC1
  inhibition: -2.67% (inactive)
